Patent US20240316088A1, “Solid composition suitable as a nutritional composition or supplement for animals that suffer from brain related disorders, decline or diseases” (N.V. Nutricia, priority 2022, published 2024)

Assay: Hygroscopicity as observed during formulation and processing
Type: physicochemical

Structure (SMILES) | hygroscopicity (in words)
C[N+](C)(C)CCO.O=C([O-])C(O)C(O)C(=O)O (centres unmarked) [Choline bitartrate] | much reduced hygroscopicity
C[N+](C)(C)CCO.[Cl-] [Choline chloride] | very hygroscopic
